Source: patent US20070117743A1, “New antitumoral compounds” (priority 2003, published 2007)
Where two headings read alike, the source gives them in different places. Where a SMILES comes first, the peptide text is derived from it. Bridges are numbered along the chain shown (N, C = ends). [ ]: non-standard residue; d: D form. The star is where a group is joined. d(aIle) = CC[C@H](C)[C@@H](N)C(=O)O; d(aThr) = C[C@@H](O)[C@@H](N)C(=O)O; Hexanoyl(5-Me) = CC(C)CCCC(=O)*; Myristoyl = CCCCCCCCCCCCCC(=O)*; Orn = NCCC[C@H](N)C(=O)O; Dhb = C/C=C(\N)C(=O)O

Legend:
Assay type in all cases: cell-based, human
[1] = tested on: SK-OV-3; assay: SRB colorimetric assay of cell growth and viability, SK-OV-3; details: 48 hours exposure
Description: (§1) The finality of this assay is to interrupt the growth of a “in vitro” tumor cell culture by means a continued exhibition of the cells to the sample to be testing.
(§2) A colorimetric type of assay, using sulforhodamine B (SRB) reaction has been adapted for a quantitative measurement of cell growth and viability [following the technique described by Philip Skehan, et al. (1990), New colorimetric cytotoxicity assay for anticancer drug screening, J. Natl. Cancer Inst., 82:1107-1112].
(§3) This form of the assay employs 96 well cell culture microplates of 9 mm diameter (Faircloth, 1988; Mosmann, 1983). Most of the cell lines are obtained from American Type Culture Collection (ATCC) derived from different human cancer types.
(§4) Cells are maintained in RPMI 1640 10% FBS, supplemented with 0.1 g/l penicillin and 0.1 g/l streptomycin sulfate and then incubated at 37° C., 5% CO2 and 98% humidity. For the experiments, cells were harvested from subconfluent cultures using trypsin and resuspended in fresh medium before plating.
(§5) Cells are seeded in 96 well microtiter plates, at 5×10^3 cells per well in aliquots of 195 μL medium, and they are allowed to attach to the plate surface by growing in drug free medium for 18 hours. Afterward, samples are added in aliquots of 5 μL in a ranging from 10 to 10^−8 μg/mL, dissolved in DMSO:EtOH:PBS (0.5:0.5:99). After 48 hours exposure, the antitumor effect are measured by the SRB methodology: cells are fixed by adding 50 μL of cold 50% (wt/vol) trichloroacetic acid (TCA) and incubating for 60 minutes at 4° C. Plates are washed with deionized water and dried. One hundred μL of SRB solution (0.4% wt/vol in 1% acetic acid) is added to each microtiter well and incubated for 10 minutes at room temperature. Unbound SRB is removed by washing with 1% acetic acid. Plates are air dried and bound stain is solubilized with Tris buffer. Optical densities are read on a automated spectrophotometric plate reader at a single wavelength of 490 nm.
(§6) The values for mean+/− SD of data from triplicate wells are calculated. Some parameters for cellular responses can be calculated: GI=growth inhibition, TGI=total growth inhibition (cytostatic effect) and LC=cell killing (cytotoxic effect).

[2] = tested on: A-549; assay: SRB colorimetric assay of cell growth and viability, A-549; details: 48 hours exposure
[3] = tested on: DU-145; assay: SRB colorimetric assay of cell growth and viability, DU-145; details: 48 hours exposure
[4] = tested on: LoVo-Dox; assay: SRB colorimetric assay of cell growth and viability, LoVo-Dox; details: 48 hours exposure
Outline: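 Sulforhodamine B assay run after 48 h of continuous drug contact; cells seeded 5×10^3/well in RPMI 1640 10% FBS, attached 18 h. Triplicate OD490 values give cytostatic (TGI), cytotoxic (LC) and GI parameters.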

[5] = tested on: K-562; assay: SRB colorimetric assay of cell growth and viability, K-562; details: 48 hours exposure
[6] = tested on: LoVo; assay: SRB colorimetric assay of cell growth and viability, LoVo; details: 48 hours exposure
[7] = tested on: HT-29; assay: SRB colorimetric assay of cell growth and viability, HT-29; details: 48 hours exposure
[8] = tested on: SK-MEL-28; assay: SRB colorimetric assay of cell growth and viability, SK-MEL-28; details: 48 hours exposure
[9] = tested on: LNCaP; assay: SRB colorimetric assay of cell growth and viability, LNCaP; details: 48 hours exposure
[10] = tested on: IGROV-1; assay: SRB colorimetric assay of cell growth and viability, IGROV-1; details: 48 hours exposure
[11] = tested on: PANC-1; assay: SRB colorimetric assay of cell growth and viability, PANC-1; details: 48 hours exposure
[12] = tested on: IGROV-ET; assay: SRB colorimetric assay of cell growth and viability, IGROV-ET; details: 48 hours exposure
[13] = tested on: MB-231; assay: SRB colorimetric assay of cell growth and viability, MB-231; details: for TGI (total growth inhibition): MB-231 cells, 48 hours exposure; for GI50: read-out: GI50 (growth inhibition at 50%), MB-231 cells, 48 hours exposure; for CC50: read-out: LC50 (lethal concentration at 50%), MB-231 cells, 48 hours exposure
Description: as §1, §2, §3, §4, §5, §6

[14] = read-out: GI50 (growth inhibition at 50%), A-549 cells, SRB
[15] = read-out: LC50 (lethal concentration at 50%), A-549 cells, SRB
[16] = read-out: GI50 (growth inhibition at 50%), HT-29 cells, SRB
[17] = read-out: LC50 (lethal concentration at 50%), HT-29 cells, SRB

C/C=C1\NC(=O)[C@H](Cc2ccccc2)NC(=O)[C@@H](C(C)C)NC(=O)[C@@H]([C@@H](C)CC)NC(=O)[C@H](NC(=O)[C@H](NC(=O)[C@H](CCCN)NC(=O)[C@H]2CCCN2C(=O)[C@H](NC(=O)CCCCCCCCCCCCC)C(C)C)[C@@H](C)CC)[C@@H](C)OC(=O)[C@H](C(C)C)NC1=O [Compound 32, [noVal^11, noThr^12, noD-Val^13, Mst^14]-KF] (Myristoyl-[dV][dP][Orn][d(aIle)][d(aThr)][d(aIle)][dV]F[Dhb]V; ester 5-C)
TGI SKOV-3 [1]: 6.27E−06 Molar | GI50 ([1]; read-out: GI50 SKOV-3): 2.34 µM | CC50 ([1]; read-out: LC50 SKOV-3): 7.83 µM | TGI A-549 [2]: 7.83E−06 Molar | GI50 ([2]; read-out: GI50 A-549): 5.19 µM | CC50 ([2]; read-out: LC50 A-549): 7.83 µM | GI50 [3]: 2.12 µM | LC50 (concentration causing 50% net cell kill) [3]: 6.81 µM | TGI DU-145 [3]: 3.80E−06 Molar | GI50 [4]: 2.15 µM | TGI LOVO-DOX [4]: 3.66E−06 Molar | CC50 ([4]; read-out: LC50 LOVO-DOX): 6.21 µM | GI50 [5]: 1.91 µM | TGI K-562 [5]: 4.21E−06 Molar | CC50 ([5]; read-out: LC50 K-562): 7.83 µM | GI50 [6]: 7.83 µM | TGI LOVO [6]: 7.83E−06 Molar | CC50 ([6]; read-out: LC50 LOVO): 7.83 µM | TGI HT-29 [7]: 7.83E−06 Molar | GI50 ([7]; read-out: GI50 HT-29): 7.66 µM | CC50 ([7]; read-out: LC50 HT-29): 7.83 µM | GI50 [8]: 2.08 µM | TGI MEL-28 [8]: 3.63E−06 Molar | CC50 ([8]; read-out: LC50 MEL-28): 6.34 µM | TGI LN-caP [9]: 3.08E−06 Molar | GI50 ([9]; read-out: GI50 LN-caP): 1.42 µM | CC50 ([9]; read-out: LC50 LN-caP): 6.67 µM | GI50 [10]: 2.29 µM | LC50 (concentration causing 50% net cell killing) [10]: 5.51 µM | TGI IGROV [10]: 3.56E−06 Molar | GI50 [11]: 1.78 µM | TGI PANC-1 [11]: 3.12E−06 Molar | CC50 ([11]; read-out: LC50 PANC-1): 5.49 µM | GI50 [12]: 2.06 µM | TGI IGROV-ET [12]: 3.26E−06 Molar | CC50 ([12]; read-out: LC50 IGROV-ET): 5.16 µM

C/C=C1\NC(=O)[C@H](Cc2ccccc2)NC(=O)[C@@H](C(C)C)NC(=O)[C@@H]([C@@H](C)CC)NC(=O)[C@H](NC(=O)[C@H](NC(=O)[C@H](CCCN)NC(=O)[C@H]2CCCN2C(=O)[C@H](NC(=O)[C@@H](NC(=O)[C@@H](NC(=O)[C@H](NC(=O)[C@]23CCC(C)(C)C[C@H]2C2=CC[C@@H]4[C@@]5(C)C[C@@H](O)[C@H](O)C(C)(C)[C@@H]5CC[C@@]4(C)[C@]2(C)CC3)C(C)C)[C@@H](C)O)C(C)C)C(C)C)[C@@H](C)CC)[C@@H](C)OC(=O)[C@H](C(C)C)NC1=O [Compound 101, [AM^14]-KF]
TGI (total growth inhibition) ([2]; A-549 cells, SRB): 5.49E−06 Molar | GI50 [2, 14]: 5.49 µM | CC50 [2, 15]: 5.49 µM | TGI (total growth inhibition) [13]: 5.49E−06 Molar | TGI (total growth inhibition) ([7]; HT-29 cells, SRB): 4.60E−06 Molar | GI50 [7, 16]: 4.45 µM | CC50 [7, 17]: 4.86 µM

C/C=C1\NC(=O)[C@H](Cc2ccccc2)NC(=O)[C@@H](C(C)C)NC(=O)[C@@H]([C@@H](C)CC)NC(=O)[C@H](NC(=O)[C@H](NC(=O)[C@H](CCCN)NC(=O)[C@H]2CCCN2C(=O)[C@H](NC(=O)[C@@H](NC(=O)[C@@H](NC(=O)[C@H](NC(=O)[C@]23CCC(C)(C)C[C@H]2C2=CC[C@@H]4[C@@]5(C)CC[C@H](O)C(C)(C)[C@@H]5CC[C@@]4(C)[C@]2(C)CC3)C(C)C)[C@@H](C)O)C(C)C)C(C)C)[C@@H](C)CC)[C@@H](C)OC(=O)[C@H](C(C)C)NC1=O [Compound 102, [AO^14]-KF]
TGI (total growth inhibition) ([2]; A-549 cells, SRB): 5.54E−06 Molar | GI50 [2, 14]: 4.53 µM | CC50 [2, 15]: 5.54 µM | TGI (total growth inhibition) [13]: 5.54E−06 Molar | TGI (total growth inhibition) ([7]; HT-29 cells, SRB): 5.54E−06 Molar | GI50 [7, 16]: 5.54 µM | CC50 [7, 17]: 5.54 µM

C/C=C1\NC(=O)[C@H](Cc2ccccc2)NC(=O)[C@@H](C(C)C)NC(=O)[C@@H]([C@@H](C)CC)NC(=O)[C@H](NC(=O)[C@H](NC(=O)[C@H](CCCN)NC(=O)[C@H]2CCCN2C(=O)[C@H](NC(=O)[C@@H](NC(=O)[C@@H](NC(=O)[C@H](N=C(N(C)C)N(C)C)C(C)C)[C@@H](C)O)C(C)C)C(C)C)[C@@H](C)CC)[C@@H](C)OC(=O)[C@H](C(C)C)NC1=O [Compound 103, [[C(═N(CH3)2)^14]-KF]
TGI (total growth inhibition) ([2]; A-549 cells, SRB): 6.83E−06 Molar | TGI (total growth inhibition) [13]: 6.83E−06 Molar | TGI (total growth inhibition) ([7]; HT-29 cells, SRB): 6.83E−06 Molar

C/C=C1\NC(=O)[C@H](Cc2ccccc2)NC(=O)[C@@H](C(C)C)NC(=O)[C@@H]([C@@H](C)CC)NC(=O)[C@H](NC(=O)[C@H](NC(=O)[C@H](CCCN)NC(=O)[C@H]2CCCN2C(=O)[C@H](NC(=O)[C@@H](NC(=O)[C@@H](NC(=O)[C@H](NC(=O)CCCC(C)C)C(C)C)[C@@H](C)O)C(C)C)C(C)C)[C@H](C)CC)[C@@H](C)OC(=O)[C@H](C(C)C)NC1=O [Compound 104, [D-Ile^7]-KF]
TGI (total growth inhibition) ([2]; A-549 cells, SRB): 1.13E−06 Molar | GI50 [2, 14]: 0.942 µM | CC50 [2, 15]: 1.51 µM | TGI (total growth inhibition) [13]: 5.34E−06 Molar | GI50 [13]: 5.09 µM | CC50 [13]: 5.59 µM | TGI (total growth inhibition) ([7]; HT-29 cells, SRB): 3.39E−07 Molar | GI50 [7, 16]: 0.314 µM | CC50 [7, 17]: 0.371 µM

C/C=C1\NC(=O)[C@H](Cc2ccccc2)NC(=O)[C@@H](C(C)C)NC(=O)[C@@H]([C@@H](C)CC)NC(=O)[C@H](NC(=O)[C@H](NC(=O)[C@H](CCCN)NC(=O)[C@H]2CCCN2C(=O)[C@H](NC(=O)[C@@H](NC(=O)[C@@H](NC(=O)[C@H](NC(=O)CCCC(C)C)C(C)C)[C@@H](C)O)C(C)C)C(C)C)C(C)C)[C@@H](C)OC(=O)[C@H](C(C)C)NC1=O [Compound 105, [D-Val^7]-KF] ({Hexanoyl(5-Me)}-[dV]TV[dV][dP][Orn][dV][d(aThr)][d(aIle)][dV]F[Dhb]V; ester 8-C)
TGI (total growth inhibition) ([2]; A-549 cells, SRB): 2.60E−06 Molar | GI50 [2, 14]: 2.28 µM | CC50 [2, 15]: 3.04 µM | TGI (total growth inhibition) [13]: 6.33E−06 Molar | TGI (total growth inhibition) ([7]; HT-29 cells, SRB): 8.87E−07 Molar | GI50 [7, 16]: 0.824 µM | CC50 [7, 17]: 0.887 µM

C/C=C1\NC(=O)[C@H](Cc2ccccc2)NC(=O)[C@@H](C(C)C)NC(=O)[C@@H]([C@@H](C)CC)NC(=O)[C@H](NC(=O)[C@H](NC(=O)[C@@H](CCCN)NC(=O)[C@@H]2CCCN2C(=O)[C@H](NC(=O)[C@@H](NC(=O)[C@@H](NC(=O)[C@H](NC(=O)CCCC(C)C)C(C)C)[C@@H](C)O)C(C)C)C(C)C)[C@@H](C)CC)[C@@H](C)OC(=O)[C@H](C(C)C)NC1=O [Compound 106, [D-Orn^8, L-Pro^9]-KF]
TGI (total growth inhibition) ([2]; A-549 cells, SRB): 6.77E−06 Molar | GI50 [2, 14]: 6.77 µM | CC50 [2, 15]: 6.77 µM | TGI (total growth inhibition) [13]: 6.77E−06 Molar | GI50 [13]: ≥ 6.77 µM | CC50 [13]: ≥ 6.77 µM | TGI (total growth inhibition) ([7]; HT-29 cells, SRB): 6.77E−06 Molar | GI50 [7, 16]: 6.77 µM | CC50 [7, 17]: 6.77 µM
